Data on 23 molecules can be found in patent publication US20170121344A1 (Siga Technologies, Inc., priority 2009, published 2017).

The test system of one test is DENV-4. Briefly: Viral yield assay against DENV-4 in Vero cells. The following applies: Dengue virus. The format is cell-based. The procedure:
(§1) Compounds that were active in the primary screen were tested for activity in viral yield assays. […] Vero cells in 12-well plates were infected with dengue-2 virus at a multiplicity of infection (MOI) of 0.1, treated with compound (or DMSO as a control), incubated at 37° C., harvested 48 hours post infection and titered on Vero cells as described above. The EC50 was calculated through ExcelFit. Activities against other serotypes of dengue virus were determined in a similar way.

In the next test the test system is DENV-1. Briefly: Viral yield assay against DENV-1 in Vero cells. The format is cell-based. The following applies: Dengue virus. Here is the method:
as §1

For the next test, the system named is DENV-3. Briefly: Viral yield assay against DENV-3 in Vero cells. The following applies: Dengue virus. The format is cell-based. Here is the method: as §1
Test [1] deals with Dengue-2 (Strain New Guinea C). Briefly: Viral yield assay against Dengue-2 in Vero cells. The format is cell-based, Dengue virus. The conditions noted are these: Dengue virus, read-out: Activity (EC50 in μM) DENV-2. An outline of the steps: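 Progeny virus from compound-treated Vero monolayers infected at an MOI of 0.1 is collected after 48 h at 37° C and titered on Vero cells. DMSO serves as control.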

Setting [2] is: DENV2, viral yield assay, Vero cells, MOI 0.1, 48 hours post infection.

Like-named read-outs stand apart in the source and are kept apart here. A value given as a limit tells only on which side of the number the result lay.

As for `Nc1c(C(=O)Nc2ccccc2Br)sc2nc(-c3ccc(Cl)cc3)ccc12` [Compound 341, 3-amino-N-(2-bromophenyl)-6-(4-chlorophenyl) thieno[2,3-b] pyridine-2-carboxamide], the 50% effective concentration (EC50) (commonly the concentration giving half of the maximal effect) in the test with DENV-4 (DENV4, viral yield assay) was less than 5 µM; in the test with DENV-1 (DENV1, viral yield assay), less than 5 µM; with DENV-3 (DENV3, viral yield assay), less than 5 µM; in test [1] (setting [2]) it was less than 5 µM.
Turning to `Nc1c(C(=O)Nc2ccc(Cl)c(Cl)c2)sc2nc(-c3ccc(Cl)cc3)ccc12` [Compound 342, 3-amino-6-(4-chlorophenyl)-N-(3,4-dichloro-phenyl)thieno [2,3-b]pyridine-2-carboxamide], the concentration giving a half-maximal response (EC50) with DENV-4 (DENV4, viral yield assay) was less than 5 µM; with DENV-1 (DENV1, viral yield assay) it was less than 5 µM; in the test on DENV-3 (DENV3, viral yield assay), less than 5 µM; in test [1] (setting [2]), less than 5 µM.
Turning to `Nc1c(C(=O)Nc2cccc(Cl)c2Cl)sc2nc(-c3ccc(Cl)cc3)ccc12` [Compound 343, 3-amino-6-(4-chlorophenyl)-N-(2,3-dichloro-phenyl)thieno [2,3-b]pyridine-2-carboxamide], the EC50 was less than 5 µM in the test on DENV-4 (DENV4, viral yield assay); less than 5 µM in the test with DENV-1 (DENV1, viral yield assay); less than 5 µM in the test with DENV-3 (DENV3, viral yield assay); less than 5 µM in test [1] (setting [2]).
In the case of `Nc1c(C(=O)Nc2cccc(Cl)c2)sc2nc(-c3ccc(Cl)cc3)ccc12` [Compound 344, 3-amino-N-(3-chlorophenyl)-6-(4-chloro-phenyl)thieno[2,3-b]pyridine-2-carboxamide], the EC50 was less than 5 µM in the test with DENV-4 (DENV4, viral yield assay); less than 5 µM in the test on DENV-1 (DENV1, viral yield assay); less than 5 µM in the test on DENV-3 (DENV3, viral yield assay); less than 5 µM in test [1] (setting [2]).
`Nc1c(C(=O)Nc2ccc(OC(F)F)cc2)sc2nc(-c3cccc(OC(F)F)c3)ccc12` [Compound 345, 3-amino-6-[3-(difluoromethoxy)phenyl]-N-[4-(difluoromethoxy)phenyl]thieno[2,3-b]pyridine-2-carboxamide]: the EC50 is less than 5 µM in the test with DENV-4 (DENV4, viral yield assay); less than 5 µM in the test on DENV-1 (DENV1, viral yield assay); less than 5 µM in the test with DENV-3 (DENV3, viral yield assay); less than 5 µM in test [1] (setting [2]).
On to `Nc1c(C(=O)Nc2ccc(Br)cc2)sc2nc(-c3ccc(Cl)cn3)ccc12` [Compound 349, 3-amino-N-(4-bromophenyl)-6-(5-chloro-2-pyridyl)thieno [2,3-b]pyridine-2-carboxamide], for which the EC50 in the test on DENV-4 (DENV4, viral yield assay) is less than 5 µM; in the test on DENV-1 (DENV1, viral yield assay) it was less than 5 µM; in the test on DENV-3 (DENV3, viral yield assay), less than 5 µM; in test [1] (setting [2]) it was less than 5 µM.
Take `Nc1c(C(=O)N(CCC(=O)O)c2ccc(Br)cc2)sc2nc(-c3ccc(Cl)cc3)ccc12` [Compound 350, 3-(N-[3-amino-6-(4-chloro-phenyl)thieno [2,3-b]pyridine-2-carbonyl]-4-bromoanilino) propanoic acid]: the half-maximal effective concentration (EC50) with DENV-4 (DENV4, viral yield assay) was less than 5 µM; in the test on DENV-1 (DENV1, viral yield assay), less than 5 µM; in the test with DENV-3 (DENV3, viral yield assay) it was less than 5 µM; in test [1] (setting [2]) it was less than 5 µM.
For `Nc1c(C(=O)Nc2ccc(Cl)cn2)sc2nc(-c3ccc(Cl)cc3)ccc12` [Compound 352, 3-amino-6-(4-chlorophenyl)-N-(5-chloro-2-pyridyl)thieno [2,3-b]pyridine-2-carboxamide], the EC50 is less than 5 µM in the test with DENV-4 (DENV4, viral yield assay); less than 5 µM in the test on DENV-1 (DENV1, viral yield assay); less than 5 µM in the test with DENV-3 (DENV3, viral yield assay); less than 5 µM in test [1] (setting [2]).
Regarding `Nc1c(C(=O)Nc2ccc(Cl)nc2)sc2nc(-c3ccc(Cl)cc3)ccc12` [Compound 353, 3-amino-6-(4-chlorophenyl)-N-(6-chloro-3-pyridyl)thieno [2,3-b]pyridine-2-carboxamide], the EC50 with DENV-4 (DENV4, viral yield assay) was less than 5 µM; with DENV-1 (DENV1, viral yield assay), less than 5 µM; in the test on DENV-3 (DENV3, viral yield assay) it was less than 5 µM; in test [1] (setting [2]) it was less than 5 µM.
As for `CC(=O)Nc1c(C(=O)Nc2nnc(-c3ccccc3)s2)sc2nc3c(cc12)CCCCC3` [Compound 358, 3-acetamido-N-(5-phenyl-1,3,4-thiadiazol-2-yl)-6,7,8,9-tetrahydro-5H-cyclohepta[b]thieno[3,2-e]pyridine-2-carboxamide], the EC50 with DENV-4 (DENV4) is greater than 25 µM; in the test on DENV-1 (DENV1), less than 5 µM; with DENV-3 (DENV3), 5 to 25 µM; in test [1] (DENV2, Vero cells), less than 5 µM.
Turning to `CNc1c(C(=O)Nc2nnc(-c3ccccc3)s2)sc2nc3c(cc12)CCCCC3` [Compound 359, 3-(methylamino)-N-(5-phenyl-1,3,4-thiadiazol-2-yl)-6,7,8,9-tetrahydro-5H-cyclohepta[b]thieno[3,2-e]pyridine-2-carboxamide], the EC50 is 5 to 25 µM with DENV-4 (DENV4); less than 5 µM with DENV-1 (DENV1); greater than 25 µM with DENV-3 (DENV3); less than 5 µM in test [1] (DENV2, Vero cells).
Take `O=C(Nc1c(C(=O)Nc2nnc(-c3ccccc3)s2)sc2nc3c(cc12)CCCCC3)c1ccccn1` [Compound 360, N-(5-phenyl-1,3,4-thiadiazol-2-yl)-3-(picolinamido)-6,7,8,9-tetrahydro-5H-cyclohepta[b]thieno[3,2-e]pyridine-2-carboxamide]: the concentration giving a half-maximal response (EC50) with DENV-4 (DENV4) was less than 5 µM; in the test with DENV-1 (DENV1), greater than 25 µM; with DENV-3 (DENV3), greater than 25 µM; in test [1] (DENV2, Vero cells) it was less than 5 µM.
Take `NCC(=O)Nc1c(C(=O)Nc2nnc(-c3ccccc3)s2)sc2nc(Cl)ccc12` [Compound 361, 3-[(2-aminoacetyl)amino]-6-chloro-N-(5-phenyl-1,3,4-thiadiazol-2-yl)thieno[2,3-b]pyridine-2-carboxamide]: the concentration giving a half-maximal response (EC50) is greater than 25 µM in the test with DENV-4 (DENV4); less than 5 µM in the test with DENV-1 (DENV1); less than 5 µM in the test with DENV-3 (DENV3); less than 5 µM in test [1] (DENV2, Vero cells).
With `O=C(O)CC(=O)Nc1c(C(=O)Nc2nnc(-c3ccccc3)s2)sc2nc(Cl)ccc12` [Compound 362, 3-[[6-chloro-2-[(5-phenyl-1,3,4-thiadiazol-2-yl)carbamoyl]thieno[2,3-b]pyridin-3-yl]amino]-3-oxo-propanoic acid], the EC50 in the test on DENV-4 (DENV4) was greater than 25 µM; with DENV-1 (DENV1), 5 to 25 µM; with DENV-3 (DENV3), greater than 25 µM; in test [1] (DENV2, Vero cells) it was 5 to 25 µM.
For the molecule `O=C(O)CN(CC(=O)O)c1c(C(=O)Nc2cccc(C(F)(F)F)c2)sc2nc(-c3cccs3)ccc12` [Compound 363, 2-[carboxymethyl-[6-(2-thienyl)-2-[[3-(trifluoromethyl)phenyl]carbamoyl]thieno[2,3-b]pyridin-3-yl]amino]acetic acid], the 50% effective concentration (EC50) with DENV-4 (DENV4) was greater than 25 µM; in the test with DENV-1 (DENV1), 5 to 25 µM; in the test on DENV-3 (DENV3), greater than 25 µM; in test [1] (DENV2, Vero cells) it was less than 5 µM.
In the case of `Cc1cccc2cc3c(N)c(C(=O)Nc4cccc(C(F)(F)F)c4)sc3nc12` [Compound 364, 3-amino-8-methyl-N-(3-(trifluoromethyl)phenyl)thieno [2,3-b]quinoline-2-carboxamide], the EC50 was less than 5 µM in the test on DENV-4 (DENV4, viral yield assay); less than 5 µM in the test on DENV-1 (DENV1, viral yield assay); less than 5 µM with DENV-3 (DENV3, viral yield assay); less than 5 µM in test [1] (setting [2]).
Regarding `Nc1c(C(=O)Nc2ccc3ccccc3c2)sc2nc3c(cc12)CCCCC3` [Compound 365, 3-amino-N-(naphthalen-2-yl)-6,7,8,9-tetrahydro-5H-cyclohexpta[b]thieno[3,2-e] pyridine-2-carboxamide], the EC50 in the test with DENV-4 (DENV4, viral yield assay) was greater than 25 µM; with DENV-1 (DENV1, viral yield assay), 5 to 25 µM; with DENV-3 (DENV3, viral yield assay), 5 to 25 µM; in test [1] (setting [2]) it was less than 5 µM.
On to `Nc1c(C(=O)Nc2cccc(C(F)(F)F)c2)sc2nc3c(cc12)CCCCC3` [Compound 368, 3-amino-N-(3-(trifluoromethyl)phenyl)-6,7,8,9-tetrahydro-5H-cyclohepta[b]thieno [3,2-e]pyridine-2-carboxamide], for which the EC50 in the test on DENV-4 (DENV4, viral yield assay) is less than 5 µM; with DENV-1 (DENV1, viral yield assay), less than 5 µM; in the test with DENV-3 (DENV3, viral yield assay), less than 5 µM; in test [1] (setting [2]), less than 5 µM.
As for `Nc1c(C(=O)Nc2ccc(OC(F)(F)F)cc2)sc2nc3c(cc12)CCCCC3` [Compound 369, 3-amino-N-(4-(trifluroomethoxy)phenyl)-6,7,8,9-tetrahydro-5H-cyclohepta[b]thieno [3,2-e]pyridine-2-carboxamide], the EC50 is less than 5 µM with DENV-4 (DENV4, viral yield assay); 5 to 25 µM in the test on DENV-1 (DENV1, viral yield assay); less than 5 µM in the test on DENV-3 (DENV3, viral yield assay); less than 5 µM in test [1] (setting [2]).
Regarding `Nc1c(C(=O)N(c2ccccc2)c2ccccc2)sc2nc3c(cc12)CCCCC3` [Compound 373, 3-amino-N,N-diphenyl-6,7,8,9-tetrahydro-5H-cyclohepta[b]thieno[3,2-e]pyridine-2-carboxamide], the EC50 was less than 5 µM in the test with DENV-4 (DENV4, viral yield assay); less than 5 µM in the test on DENV-1 (DENV1, viral yield assay); less than 5 µM in the test with DENV-3 (DENV3, viral yield assay); less than 5 µM in test [1] (setting [2]).
On to `Nc1c(C(=O)Nc2ccccc2)sc2nc(-c3cccs3)ccc12` [Compound 411, 3-amino-N-phenyl-6-(2-thienyl)thieno [2,3-b]pyridin-2-carboxamide], for which the half-maximal effective concentration (EC50) in the test on DENV-4 (DENV4, viral yield assay) is less than 5 µM; in the test on DENV-1 (DENV1, viral yield assay), less than 5 µM; in the test on DENV-3 (DENV3, viral yield assay), less than 5 µM; in test [1] (DENV2, Vero, 48 h), less than 5 µM.
With `Nc1c(C(=O)Nc2ccc(Cl)c(Cl)c2)sc2nc(-c3cccs3)ccc12` [Compound 413, 3-amino-N-(3,4-dichlorophenyl)-6-(2-thienyl)thieno[2,3-b]pyridine-2-carboxamide], the EC50 was less than 5 µM in the test with DENV-4 (DENV4, viral yield assay); less than 5 µM in the test with DENV-1 (DENV1, viral yield assay); less than 5 µM in the test with DENV-3 (DENV3, viral yield assay); less than 5 µM in test [1] (setting [2]).
For the molecule `Cc1ccc(NC(=O)c2sc3nc(-c4cccs4)ccc3c2N)cc1C` [Compound 414, 3-amino-N-(3,4-dimethylphenyl)-6-(2-thienyl)thieno[2,3-b]pyridine-2-carboxamide], the EC50 with DENV-4 (DENV4, viral yield assay) is less than 5 µM; in the test with DENV-1 (DENV1, viral yield assay), less than 5 µM; with DENV-3 (DENV3, viral yield assay) it was less than 5 µM; in test [1] (setting [2]), less than 5 µM.
